Assay results from patent US10204708B2, “System and method for deriving parameters for homeostatic feedback control of an individual” (Agency for Science, Technology and Research, priority 2012, dated 2019).

What was measured:
Format in all cases: in vivo, human
[1] = thyroid function test, thyroid-stimulating hormone [TSH] level of patient under treatment
Source text: (§1) The method 10 is particularly suited to derive the hypothalamus pituitary (HP) characteristic of the individual. The HP characteristic of, the individual relates the level of thyroid-stimulating hormone [TSH] level in milliunits per liter (mU/L) and the corresponding free thyroxin [FT4] level in picomoles per liter (pmol/L) in the individual. In the following description, homeostatic measurements would be understood to refer to measurements of the level of [TSH] and corresponding [FT4] in an individual.
(§2) Each homeostatic measurement comprises a value of a [TSH] reading and a corresponding [FT4] reading. To determine the S and φ parameters for the individual, at least two well distinguishable homeostatic, measurements (i.e. ([FT4]1, [TSH]1) and ([FT4]2, [TSH]2)) from the individual are obtained with a predetermined time gap in between each measurement. The measurements are performed on samples taken near the same time of the day by the same analytical measurement method and ideally applied by one and the same person whenever feasible to minimise errors that can compromise the accuracy of the model estimates.
(§3) Preferably, the individual measurements are performed in a fasting condition and separated by 6 weeks while under medical treatment for a hypothyroidism or hyperthyroidism state with the replacement hormone for [T4] leading to a state of clinical euthyroidism.
(§4) Any method known for measuring homeostatic parameters would be suitable, for example, various types of chromatography, immunochemistry or other methods known to accurately measure the amount of a homeostatic expression product, as long as the same measurement method is applied by one and the same person.

[2] = clinical course of hypothyroid Graves' disease patient on L-thyroxin; settings: Example 3 patient, 75 mcg L-T4 daily
Source text: They were thus started on L-thyroxin from day 456 at 25 mcg daily, and escalated to 50 mcg daily from day 715.

[3] = thyroid function test, free thyroxin [FT4] level of patient under treatment
Source text: as §1, §2, §3, §4

[4] = Example 1 patient, day 210, Rx LT4 50 (mcg daily), after radioiodine-131 ablation
[5] = Example 1 patient, day 269, Rx LT4 50 (mcg daily)
[6] = Example 6 patient, 1 Oct. 2007, LT4 100
[7] = Example 6 patient, 2 May 1997, LT4 25
[8] = Example 6 patient, 3 May 2005, LT4 75
[9] = Example 6 patient, 5 Oct. 2005, LT4 100
[10] = Example 6 patient, 6 May 2011, LT4 100
[11] = Example 6 patient, 10 Dec. 2010, LT4 100
[12] = Example 6 patient, 12 Feb. 2007, LT4 100
[13] = Example 6 patient, 14 May 2007, LT4 100
[14] = Example 6 patient, 16 Aug. 1999, LT4 50
[15] = Example 6 patient, 16 Mar. 2012, LT4 100
[16] = Example 6 patient, 17 Aug. 1998, LT4 50
[17] = Example 6 patient, 19 Oct. 2006, LT4 100
[18] = Example 6 patient, 21 Jun. 2006, LT4 100
[19] = Example 6 patient, 23 Jan. 2006, LT4 100
[20] = Example 6 patient, 24 Apr. 2002, LT4 50
[21] = Example 6 patient, 26 Oct. 1999, LT4 50
[22] = Example 6 patient, 28 Jul. 2008, LT4 100
[23] = Example 1 patient, day 0, Rx CMZ 20
[24] = Example 1 patient, day 53, Rx CMZ 10
[25] = Example 1 patient, day 86, Rx CMZ 30
[26] = Example 1 patient, day 125, Rx CMZ 10

N[C@@H](Cc1cc(I)c(Oc2cc(I)c(O)c(I)c2)c(I)c1)C(=O)O [LT4, levothyroxin]
TSH [1, 4]: 9.05 mU/L | TSH [1, 5]: 0.12 mU/L | TSH [1, 6]: 4.34 mU/L | TSH [1, 7]: 8.64 mU/L | TSH [1, 8]: 6.67 mU/L | TSH [1, 9]: 1.10 mU/L | TSH [1, 10]: 0.99 mU/L | TSH [1, 11]: 0.41 mU/L | TSH [1, 12]: 2.65 mU/L | TSH [1, 13]: 1.72 mU/L | TSH [1, 14]: 4.96 mU/L | TSH [1, 15]: 2.20 mU/L | TSH [1, 16]: 8.71 mU/L | TSH [1, 17]: 2.43 mU/L | TSH [1, 18]: 1.48 mU/L | TSH [1, 19]: 2.18 mU/L | TSH [1, 20]: 2.32 mU/L | TSH [1, 21]: 3.03 mU/L | TSH [1, 22]: 3.12 mU/L | clinical outcome [2]: euthyroidism and resolution of all their hypothyroid symptoms | FT4 [3, 4]: 5 pmol/L | FT4 [3, 5]: 10 pmol/L | FT4 ([3]; Example 4 patient, radiation-induced thyroid failure, LT4 25 mcg once daily): about 10 pmol/L | FT4 [3, 6]: 11 pmol/L | FT4 [3, 7]: 11.5 pmol/L | FT4 [3, 8]: 13 pmol/L | FT4 [3, 9]: 16 pmol/L | FT4 [3, 10]: 17 pmol/L | FT4 [3, 11]: 18 pmol/L | FT4 [3, 12]: 15 pmol/L | FT4 [3, 13]: 14 pmol/L | FT4 [3, 14]: 12 pmol/L | FT4 [3, 15]: 15 pmol/L | FT4 [3, 16]: 10.6 pmol/L | FT4 [3, 17]: 12 pmol/L | FT4 [3, 18]: 13 pmol/L | FT4 [3, 19]: 14 pmol/L | FT4 [3, 20]: 13 pmol/L | FT4 [3, 21]: 14 pmol/L | FT4 [3, 22]: 13 pmol/L

CCOC(=O)n1ccn(C)c1=S [CMZ, carbimazole]
TSH [1, 23]: <0.01 mU/L | TSH [1, 24]: <0.01 mU/L | TSH [1, 25]: 0.005 mU/L | TSH [1, 26]: 0.02 mU/L | FT4 [3, 23]: 53.3 pmol/L | FT4 [3, 24]: 12.5 pmol/L | FT4 [3, 25]: 31.3 pmol/L | FT4 [3, 26]: 11 pmol/L
